# Measured values as given in patent US12630536B2, “Cyanotriazine derivative, preparation method therefor, and application thereof” (Chengdu Fanxi Biopharma Co., LTD., priority 2020, dated 2026).
# Like-named read-outs stand apart in the source and are kept apart here.
# Key:
# [1] = system: TR beta-UAS-bla HEK 293T Cells; assay: TR cell-based agonist detection, β-lactamase reporter (LiveBLAzer FRET B/G), TR beta; settings: for EC50: read-out: TR_β_EC50; for Emax: read-out: Maximum activity ratio (A460/A530)
# Description: (§1) A method for testing a THR-α/β activation activity of a compound by an in-vitro cell level was as follows.
# (§2) Compounds were transferred to a 384-well plate by an ECHO liquid workstation, and each compound was diluted by 3 times with 10 gradient concentrations, which was in triplicate. 1.5×10^4 DMEM-cultured cells (TR beta-UAS-bla HEK 293T Cells) or 1.0×10^4 TR alpha-UAS-bla HEK 293T Cells were placed in the 384-well plate. HEK 293T-TR beta was incubated in an incubator for 16 hours, and HEK 293T-TR alpha was incubated in an incubator for 24 hours. A LiveBLAzer™-FRET B/G (CCF4-AM) substrate was added into the cell plate to detect expression of β-lactamase in cells, and under excitation of 409 nm, a product produced fluorescence with a wavelength of 447 nm. When the β-lactamase was not expressed, under excitation of 409 nm, fluorescence with a wavelength of 520 nm was directly produced through FRET. Combination between the compound and the protein was determined by detecting a ratio of the two kinds of fluorescence (blue/green, 460 nm/530 nm), thus calculating EC50 of the compound. […] Calculation of a factor Z (greater than 0.5) would be used for monitoring a stability of each experiment.
# [2] = system: TR alpha-UAS-bla HEK 293T Cells; assay: TR cell-based agonist detection, β-lactamase reporter (LiveBLAzer FRET B/G), TR alpha; settings: for EC50: Detection of TR_cell-based agonist, HEK 293T-TR alpha, 24 hours, read-out: TR_α_EC50; for Emax: HEK-293T, 24 h, read-out: Maximum activity ratio
# Description: as §1, §2
# [3] = target: T1, THR-α ligand-binding domain (H6-THR-α) (Homo sapiens, UniProt P10827); assay: Co-activated peptide recruitment test of THR-α/RXR/GRIP1 (TR_LBD agonist detection, HTRF); type: biochemical; settings: for EC50: Detection of TR_LBD agonist, read-out: TR_α_EC50; for Maximum activity ratio (A520/A495) / Measurement of cpd/T3 (maximum ratio): TR_LBD agonist, TR_α; for Measurement of cpd/T3 (maximum ratio): maximum relative to T3
# T1 construct: made in house; host or cells: Escherichia coli BL21 (DE3), vector pET28a
# T1 sequence (P10827 148-410 isoform P10827-2 limits assumed): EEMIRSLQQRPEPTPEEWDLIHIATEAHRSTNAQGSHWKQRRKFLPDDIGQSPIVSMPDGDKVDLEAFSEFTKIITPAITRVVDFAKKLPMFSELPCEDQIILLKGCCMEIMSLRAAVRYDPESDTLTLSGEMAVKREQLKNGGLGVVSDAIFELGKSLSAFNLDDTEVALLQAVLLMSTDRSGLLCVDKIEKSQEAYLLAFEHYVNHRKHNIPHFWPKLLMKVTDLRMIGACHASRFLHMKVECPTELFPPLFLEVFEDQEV
# T1 sequence (P19793 225-462 partner limits assumed): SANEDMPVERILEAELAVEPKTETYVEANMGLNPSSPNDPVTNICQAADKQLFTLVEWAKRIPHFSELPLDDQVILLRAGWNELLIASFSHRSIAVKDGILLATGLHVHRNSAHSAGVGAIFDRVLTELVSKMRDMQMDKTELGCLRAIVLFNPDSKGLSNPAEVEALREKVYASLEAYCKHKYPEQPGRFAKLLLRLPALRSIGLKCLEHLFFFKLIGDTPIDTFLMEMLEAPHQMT
# T1 sequence (Q15596 679-703 partner limits assumed): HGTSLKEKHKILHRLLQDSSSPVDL
# Description: (§3) A ligand binding domain of THR-β (amino acids 148-410) (H6-THR-β) and a ligand binding domain of THR-α (amino acids 202-461) (H6-TRα) were cloned into E. coli expression vector pET28a (Novagen, Milwaukee, Wis.) containing N-terminal six His sequences. The resulting recombinant six-His-tagged protein was produced in E. coli BL21(DE3) cells. The cells were grown in Terrific Broth (self-used self-prepared Bacto tryptone (3.3%, w/v), Difico yeast extract (2.0%, w/v) and NaCl (0.5%, w/v) medium), incubated at 25° C. for 24 hours using a shake flask in 0.2 mM IPTG, harvested or dissolved with 5 volumes of buffer A (0.05 M Tris, 0.3 M NaCl, 1% W/V betaine, 0.01 M imidazole, 0.02 M b-mercaptoethanol, pH 8.0). Lysozyme (1.0 mg/ml, Sigma) and CompleteProtease Inhibitor Cocktail (Roche Diagnostics Gmbh) were added to the slurry and the solution was sonicated for one minute and 5 times at 4° C. The suspension was centrifuged at 127,300 RCF for 2 hours in a Ti45 Beckmann rotor and the supernatant was loaded onto an NI NTAAgarose (Quigen 30210) column. After washing with the buffer A, […] or H6-THR-α was eluted with the buffer A containing 0.25 M imidazole.
# (§4) 30 microliters of H6-THR-β (50 nM) or H6-THR-α in 50 mM Hepes, pH 7.0, 1 mM DTT, 0.05% NP40 and 0.2 mg/ml BSA (binding buffer) were mixed with an equal volume of EE-RxRα (50 nM) in the binding buffer. […] Aliquot ([…]) was transferred to a 384-well black microtiter plate. HTRF signal was read on a Victor5 reader (PerkinElmer Life and Analytical Sciences). EC50 was calculated.
# (§5) Gene clones expressing a ligand-binding domain (amino acids 148-410) of THR-β (H6-THR-β) and a ligand-binding domain (amino acids 202-461) of THR-α (H6-THR-α) were inserted into an Escherichia coli expression vector pET28a, and the expression vector contained one N-terminal 6-His sequence. The expression vector was introduced into an Escherichia coli BL21 (DE3) strain to produce a recombinant protein with a His tag. […] After finishing culturing, a bacterium in culture was collected, and the collected bacterium was resuspended with a lysis solution (0.05 M Tris, 0.3 M NaCl, 1% W/V betaine, 0.01 M imidazole, 0.02 M β-mercaptoethanol, and pH 8.0) with a volume 5 times that of the bacterium, and lysozyme and protease inhibitors were added at the same time, the treated bacteria was subjected to ultrasonic lysis (5 times per minute) in ice bath (4° C.). A lysed suspension was centrifuged at 127300 RCF for 2 hours, a supernatant was loaded on a NI_NTA agarose (Quigen 30210) column, and after washing with a buffer A, an H6-TRβ or H6-TRα protein was eluted with the buffer A containing 0.25 M imidazole.
# (§6) A human retinol X receptor (amino acid 225-462) (RxRα) was subjected to engineering modification, so that an N-terminal of the human retinol X receptor had His6 and EE(EFMPME) tags, and then the human retinol X receptor was cloned into a pACYC vector, and produced a His6 EEtagged protein in Escherichia coli. IPTG with a final concentration of 0.1 mM was added into the culture medium for induction, and cultured in a shaking flask at 18° C. for 18 hours. After finishing culturing, a bacterium in culture was collected, and the collected bacterium was re-suspended with a lysis solution (0.05 M Tris, 0.3 M NaCl, 1% W/V betaine, 0.01 M imidazole, 0.02 β-mercaptoethanol, and pH 8.0) with a volume 5 times that of the bacterium, lysozyme and protease inhibitors were added at the same time, and stirred at 4° C. for 30 minutes. Then, a suspension was subjected to an ultrasonic treatment at 4° C. for 30 seconds for 5 times. The suspension was collected, and centrifuged at 12000 RCF for 20 minutes. A supernatant was collected, and the supernatant was filtered with a membrane with a pore size of 0.45 μm, and then added with 0.5% NP-40.
# [4] = target: T2, THR-β ligand-binding domain (H6-THR-β) (Homo sapiens, UniProt P10828); assay: Co-activated peptide recruitment test of THR-β/RXR/GRIP1 (TR_LBD agonist detection, HTRF); type: biochemical; settings: for EC50: Detection of TR_LBD agonist, read-out: TR_beta_EC50; for Measurement of cpd/T3 (maximum ratio) / Maximum activity ratio (A520/A495) / α/β: TR_LBD agonist; for Measurement of cpd/T3 (maximum ratio) / Maximum activity ratio (A520/A495): TR_β; for Measurement of cpd/T3 (maximum ratio): maximum relative to T3; for α/β: ratio TR_α EC50 / TR_β EC50
# T2 construct: made in house; host or cells: Escherichia coli BL21 (DE3), vector pET28a
# T2 sequence (P10828 217-461 limits assumed): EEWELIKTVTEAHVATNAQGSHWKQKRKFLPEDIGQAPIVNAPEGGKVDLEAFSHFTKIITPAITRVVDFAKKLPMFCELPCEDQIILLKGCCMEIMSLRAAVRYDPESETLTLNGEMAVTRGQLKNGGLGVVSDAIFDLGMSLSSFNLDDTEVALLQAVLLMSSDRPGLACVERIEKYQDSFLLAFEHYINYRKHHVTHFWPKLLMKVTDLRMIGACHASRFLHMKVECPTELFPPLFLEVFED
# T2 sequence (P19793 225-462 partner limits assumed): T1 sequence (P19793 225-462 partner limits assumed)
# T2 sequence (Q15596 679-703 partner limits assumed): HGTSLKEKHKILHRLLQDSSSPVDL
# Description: as §3, §4, §5, §6
# [5] = Homo sapiens, HEK-293T, 16 h, TR_cell-based agonist, TR_β
# [6] = Homo sapiens, Detection of TR_cell-based agonist, HEK 293T-TR beta, 16 hours
# [7] = Homo sapiens, TR_cell-based agonist, TR_α
EC50 [3],EC50 [4],Measurement of cpd/T3 (maximum ratio) [4],Maximum activity ratio (A520/A495) [3],Maximum activity ratio (A520/A495) [4],α/β [4],Measurement of cpd/T3 (maximum ratio) [3],Structure (SMILES),"EC50 ([1]; Homo sapiens, HEK-293T, 16 h)",EC50 ([2]; Homo sapiens),"Emax [1, 5]","EC50 [1, 6]","Emax [2, 7]","EC50 ([1]; Detection of TR_cell-based agonist, HEK 293T-TR beta, 16 hours)","Maximum activity ratio (A460/A530) ([1]; TR_cell-based agonist, TR_β)",EC50 [2],"Maximum activity ratio ([2]; TR_cell-based agonist, TR_α)","Measurement of cpd/T3 (maximum ratio) ([1]; TR_cell-based agonist, TR_β, maximum relative to T3)","α/β ([1]; TR_cell-based agonist, ratio TR_α EC50 / TR_β EC50)","Test cpd/T3 (maximum ratio) ([2]; TR_cell-based agonist, TR_α, maximum relative to T3)"
1310 nM,45.5 nM,49.1%,2.45,2.69,28.81,45.5%,N#Cc1nn(-c2cc(Cl)c(Oc3ccc4ncn(CCN5CCCC5)c4c3)c(Cl)c2)c(=O)[nH]c1=O [Compound 5],,,,,,> 20000 nM,0.134,> 20000 nM,0.42,,,
> 5000 nM,154 nM,22.1%,,,,,"Cn1cnc2cc(Oc3c(Cl)cc(-n4nc(C#N)c(=O)[nH]c4=O)cc3Cl)ccc21 [Compound 2, 2-(3,5-dichloro-4-((1-methyl-1H-benzo[d]imidazol-5-yl)oxy)phenyl)-3,5-dioxo-2,3,4,5-tetrahydro-1,2,4-triazine-6-carbonitrile]",,> 20000 nM,14.5%,> 20000 nM,35%,,,,,,,
,> 5000 nM,,,,,,N#Cc1nn(-c2cc(Cl)c(Oc3ccc4ncn(C5CCNC5)c4c3)c(Cl)c2)c(=O)[nH]c1=O (stereo not drawn) [Compound 6],,,,,,,,,,,,
55 nM,5.48 nM,54.0%,2.32,2.96,10.04,43.0%,"N#Cc1nn(-c2cc(Cl)c(Oc3ccc4ncn(C5CCCC5)c4c3)c(Cl)c2)c(=O)[nH]c1=O [Compound 8, 2-(3,5-dichloro-4-((1-cyclopen-tyl-1H-benzo[d]imidazol-6-yl)oxy)phenyl)-3,5-dioxo-2,3,4,5-tetrahydro-1,2,4-triazine-6-carbonitrile]",,2200 nM,33.9%,596 nM,72%,,,,,6.2%,3.69,32.7%

# Continued, molecule first:
Structure (SMILES),EC50 [3],EC50 [4],Measurement of cpd/T3 (maximum ratio) [4],Maximum activity ratio (A520/A495) [3],Maximum activity ratio (A520/A495) [4],α/β [4],Measurement of cpd/T3 (maximum ratio) [3],"EC50 ([1]; Homo sapiens, HEK-293T, 16 h)",EC50 ([2]; Homo sapiens),"Emax [1, 5]","EC50 [1, 6]","Emax [2, 7]","EC50 ([1]; Detection of TR_cell-based agonist, HEK 293T-TR beta, 16 hours)","Maximum activity ratio (A460/A530) ([1]; TR_cell-based agonist, TR_β)",EC50 [2],"Maximum activity ratio ([2]; TR_cell-based agonist, TR_α)","Measurement of cpd/T3 (maximum ratio) ([1]; TR_cell-based agonist, TR_β, maximum relative to T3)","α/β ([1]; TR_cell-based agonist, ratio TR_α EC50 / TR_β EC50)","Test cpd/T3 (maximum ratio) ([2]; TR_cell-based agonist, TR_α, maximum relative to T3)"
"N[C@@H](Cc1cc(I)c(Oc2ccc(O)c(I)c2)c(I)c1)C(=O)O [Compound T3, 3,5,3′-tri-iodine-L-thyronine, reference compound]",,,,,,,,0.325 nM,0.055 nM,,,,,,,,,,
"N#Cc1nn(-c2cc(Cl)c(Oc3ccc4ncn(C5CCN(Cc6ccccc6)C5)c4c3)c(Cl)c2)c(=O)[nH]c1=O (stereo not drawn) [Compound 7, 2-(4-((1-(1-benzylpyrrolidin-3-yl)-1H-benzo[d]imidazol-6-yl)oxy)-3,5-dichlorophenyl)-3,5-dioxo-2,3,4,5-tetrahydro-1,2,4-triazine-6-carbonitrile]",> 5000 nM,13.4 nM,22.6%,,,,,,> 20000 nM,11.6%,> 20000 nM,19%,,,,,,,
"Cn1c(CCc2ccccc2)nc2cc(Oc3c(Cl)cc(-n4nc(C#N)c(=O)[nH]c4=O)cc3Cl)ccc21 [Compound 9, 2-(3,5-dichloro-4-((1-methyl-2-phenethyl-1H-benzo[d]imidazol-5-yl)oxy)phenyl)-3,5-dioxo-2,3,4,5-tetrahydro-1,2,4-triazine-6-carbonitrile]",> 5000 nM,14.8 nM,33.6%,1.39,1.84,>337.84,,,> 20000 nM,20.4%,> 20000 nM,31%,,,,,,,
"Cn1cnc2cc(Oc3c(Br)cc(-n4nc(C#N)c(=O)[nH]c4=O)cc3Br)ccc21 [Compound 4, 2-(3,5-dibromo-4-((1-methyl-1H-benzo[d]imidazol-5-yl)oxy)phenyl)-3,5-dioxo-2,3,4,5-tetrahydro-1,2,4-triazine-6-carbonitrile]",581 nM,51.7 nM,26.6%,1.59,1.46,11.25,29.5%,,> 20000 nM,16.6%,> 20000 nM,40%,,,,,,,
